Reference: ChEMBL document CHEMBL1921677, “Ungeremine effectively targets mammalian as well as bacterial type I and type II topoisomerases” (Bioorg Med Chem Lett, 2011)
Values after ≈ are worked out from the molar mass of the structure shown. Active and inactive are the calls of the source. No cut-off for these calls is given here.

What was measured:
[1] = molecular target: T1, DNA topoisomerase 2-alpha (Homo sapiens, UniProt P11388); assay: Inhibition of human topoisomerase 2alpha-mediated relaxation of supercoiled pBR322 DNA
T1 sequence (P11388 whole entry): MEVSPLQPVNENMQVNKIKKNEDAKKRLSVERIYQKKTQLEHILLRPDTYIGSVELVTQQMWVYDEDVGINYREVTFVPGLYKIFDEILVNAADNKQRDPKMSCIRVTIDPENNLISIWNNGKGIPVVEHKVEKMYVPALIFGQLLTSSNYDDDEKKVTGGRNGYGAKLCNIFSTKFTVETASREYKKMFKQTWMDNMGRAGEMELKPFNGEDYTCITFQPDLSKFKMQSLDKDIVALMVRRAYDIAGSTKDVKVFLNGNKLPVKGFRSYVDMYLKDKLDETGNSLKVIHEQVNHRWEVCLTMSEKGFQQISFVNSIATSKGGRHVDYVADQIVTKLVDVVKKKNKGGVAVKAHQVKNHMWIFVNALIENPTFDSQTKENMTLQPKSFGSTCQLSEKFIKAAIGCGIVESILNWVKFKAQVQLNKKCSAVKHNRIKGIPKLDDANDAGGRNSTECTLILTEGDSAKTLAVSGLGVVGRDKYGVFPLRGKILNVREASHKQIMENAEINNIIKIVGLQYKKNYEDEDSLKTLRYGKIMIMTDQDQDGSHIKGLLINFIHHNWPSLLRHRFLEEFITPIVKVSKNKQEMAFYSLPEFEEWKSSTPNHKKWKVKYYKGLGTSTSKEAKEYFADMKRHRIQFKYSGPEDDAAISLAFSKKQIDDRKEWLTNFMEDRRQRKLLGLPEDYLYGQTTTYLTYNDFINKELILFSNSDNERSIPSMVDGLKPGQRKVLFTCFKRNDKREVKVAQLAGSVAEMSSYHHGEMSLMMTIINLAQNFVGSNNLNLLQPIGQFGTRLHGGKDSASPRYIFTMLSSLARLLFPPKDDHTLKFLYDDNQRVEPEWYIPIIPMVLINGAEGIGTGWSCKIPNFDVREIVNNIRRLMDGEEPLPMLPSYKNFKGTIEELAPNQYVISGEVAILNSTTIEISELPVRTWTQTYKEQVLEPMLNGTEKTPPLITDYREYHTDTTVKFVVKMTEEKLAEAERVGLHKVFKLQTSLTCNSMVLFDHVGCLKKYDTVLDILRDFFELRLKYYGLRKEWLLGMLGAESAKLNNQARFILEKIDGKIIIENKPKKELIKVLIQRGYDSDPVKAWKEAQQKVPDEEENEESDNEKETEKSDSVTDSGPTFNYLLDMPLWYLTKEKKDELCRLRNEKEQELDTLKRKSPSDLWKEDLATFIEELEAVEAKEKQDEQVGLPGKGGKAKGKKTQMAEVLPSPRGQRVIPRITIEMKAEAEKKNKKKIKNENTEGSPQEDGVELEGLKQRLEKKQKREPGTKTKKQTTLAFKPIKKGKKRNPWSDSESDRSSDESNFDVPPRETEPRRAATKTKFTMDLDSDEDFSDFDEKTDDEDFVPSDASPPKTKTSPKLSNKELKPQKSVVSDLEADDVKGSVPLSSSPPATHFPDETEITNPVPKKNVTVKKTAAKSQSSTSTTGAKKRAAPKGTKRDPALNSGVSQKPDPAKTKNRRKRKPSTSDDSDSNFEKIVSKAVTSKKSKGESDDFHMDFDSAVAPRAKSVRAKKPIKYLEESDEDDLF

Nucleic Acid = assay: Binding affinity to calf thymus DNA assessed as change in absorption spectra at increasing concentration at pH 8 by UV-Vis spectra analysis; type: nucleic-acid assay; conditions: Bos taurus
[2] = molecular target: T2, DNA topoisomerase 1 (Homo sapiens) (UniProt P11387); assay: (§1) Inhibition of human topoisomerase 1-mediated relaxation of supercoiled pBR322 DNA
T2 sequence (whole entry): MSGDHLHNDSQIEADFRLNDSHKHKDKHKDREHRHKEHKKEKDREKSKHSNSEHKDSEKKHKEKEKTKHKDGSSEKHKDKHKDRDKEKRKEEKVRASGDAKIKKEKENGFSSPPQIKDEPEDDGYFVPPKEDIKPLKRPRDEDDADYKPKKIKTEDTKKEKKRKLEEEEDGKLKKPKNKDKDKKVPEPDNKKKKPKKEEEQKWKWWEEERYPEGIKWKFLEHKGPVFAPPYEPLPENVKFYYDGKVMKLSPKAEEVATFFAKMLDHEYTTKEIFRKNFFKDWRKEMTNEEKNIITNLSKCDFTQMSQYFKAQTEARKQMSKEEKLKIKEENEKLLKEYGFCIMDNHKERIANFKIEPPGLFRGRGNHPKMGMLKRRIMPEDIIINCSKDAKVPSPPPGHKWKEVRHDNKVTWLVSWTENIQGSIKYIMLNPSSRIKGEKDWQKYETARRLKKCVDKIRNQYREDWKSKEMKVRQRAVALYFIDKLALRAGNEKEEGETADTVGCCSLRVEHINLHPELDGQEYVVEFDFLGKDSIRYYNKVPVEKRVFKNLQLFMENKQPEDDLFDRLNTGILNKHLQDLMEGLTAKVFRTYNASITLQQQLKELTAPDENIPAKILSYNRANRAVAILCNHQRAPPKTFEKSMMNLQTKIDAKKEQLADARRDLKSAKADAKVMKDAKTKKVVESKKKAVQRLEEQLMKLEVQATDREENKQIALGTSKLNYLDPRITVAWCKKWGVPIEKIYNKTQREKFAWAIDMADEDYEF

[3] = molecular target: T1, DNA topoisomerase 2-alpha; assay: Inhibition of human topoisomerase 2alpha kinetoplast DNA decatenation activity assessed as formation of monomeric circle from DNA at pH 8 after 1 hr
[4] = Inhibition of Escherichia coli DNA topoisomerase 4-mediated relaxation of supercoiled pBR322 DNA
[5] = Inhibition of Escherichia coli DNA topoisomerase 1-mediated relaxation of supercoiled pBR322 DNA
Escherichia coli [6] = assay: Inhibition of Escherichia coli topoisomerase 4 kinetoplast DNA decatenation activity assessed as formation of monomeric circle from DNA at pH 8 after 1 hr
MCF7 = assay: Cytotoxicity against human MCF7 cells after 72 hrs by MTT assay; type: functional, cell-based; conditions: MCF7, 72 h
HL-60 = assay: Cytotoxicity against human HL60 cells after 72 hrs by MTT assay; type: functional, cell-based; conditions: HL-60, 72 h
[7] = tested on: Staphylococcus epidermidis; assay: Antibacterial activity against Staphylococcus epidermidis by agar dilution method; type: functional
DNA topoisomerase 1 = molecular target: T3, DNA topoisomerase 1 (Homo sapiens, UniProt P11387); assay: as §1
T3 sequence (P11387 whole entry): T2 sequence (whole entry)

Escherichia coli [8] = assay: Stabilization of Escherichia coli DNA topoisomerase 1-DNA cleavage complex assessed as cleavage enhancement using 32P-TAACCCTGAAAGATTATGCAATGCGCTTTGGG ssDNA as substrate at 10 to 200 uM at pH 8 after 20 mins by agarose gel electrophoresis relative to control
Salmonella typhi = assay: Antibacterial activity against Salmonella typhi by agar dilution method; type: functional, Salmonella enterica subsp. enterica serovar Typhi; conditions: Salmonella enterica

| SMILES | inhibition [1] | Activity (Nucleic Acid) | inhibition [2] | inhibition [3] | IC50 [4] [µM] | IC50 [5] [µM] | inhibition (Escherichia coli [6]) | IC50 [1] [µM] | IC50 (MCF7) [µM] | IC50 (HL-60) [µM] | MIC [7] [µg/mL] | IC50 (DNA topoisomerase 1) [µM] | fold change (FC) (Escherichia coli [8]) | MIC (Salmonella typhi) [µg/mL] |
| --- | --- | --- | --- | --- | --- | --- | --- | --- | --- | --- | --- | --- | --- | --- |
| O[C@@H]1C=C[C@]23CCN(Cc4cc5c(cc42)OCO5)[C@H]3C1 | inactive | inactive | inactive |  |  |  |  |  |  |  |  |  |  |  |
| O[C@H]1[C@H]2c3cc4c(cc3CN3CCC(=C[C@@H]1O)[C@H]23)OCO4 | inactive | inactive | inactive |  |  |  |  |  |  |  |  |  |  |  |
| [O-]c1cc2c3c(c1)c1cc4c(cc1c[n+]3CC2)OCO4 [UNGEREMINE] |  | Active |  | Active | 7.3 | 15 | inactive | 25.8 | > 40 | 1.4 | 31.2 (≈ 118 µM) | 6.1 | 250 | 125 (≈ 471 µM) |
